Where two headings read alike, the source gives them in different places.
Columns and labels:
Assay in all cases: cell-based
hNav1.7 [1] = molecular target: T1, hNav1.7 (Homo sapiens, UniProt Q15858); conditions: for IC50: read-out: IC50 (μM) Nav1.7
hNav1.3 = hNav1.3 (Homo sapiens, UniProt Q9NY46); conditions: IonWorks Quattro, read-out: IC50 (μM) Nav1.3
hNav1.4 [2] = molecular target: T2, hNav1.4 (Homo sapiens, UniProt P35499); type: cell-based; conditions: for IC50: IonWorks Quattro, read-out: IC50 (μM) Nav1.4; for Nav1.4/Nav1.7: ratio of IonWorks Quattro IC50 values
hNav1.6 = hNav1.6 (Homo sapiens, UniProt Q9UQD0); type: cell-based; conditions: Table 15; for IC50: read-out: PX hNav1.6 Tonic IC50; for Nav1.6/Nav1.7: ratio of PX tonic IC50 values
hNav1.5 = hNav1.5 (Homo sapiens, UniProt Q14524); conditions: IonWorks Quattro, read-out: IC50 (μM) Nav1.5
hNav1.7 [3] = molecular target: T1, hNav1.7; type: cell-based; conditions: for Nav1.4/Nav1.7 / Nav1.5/Nav1.7: ratio of PX tonic IC50 values, Table 11; for IC50: read-out: PX hNav1.7 Tonic IC50
hNav1.4 [4] = molecular target: T2, hNav1.4; type: cell-based; conditions: PX

Chain of hNav1.3 (Q9NY46 whole entry): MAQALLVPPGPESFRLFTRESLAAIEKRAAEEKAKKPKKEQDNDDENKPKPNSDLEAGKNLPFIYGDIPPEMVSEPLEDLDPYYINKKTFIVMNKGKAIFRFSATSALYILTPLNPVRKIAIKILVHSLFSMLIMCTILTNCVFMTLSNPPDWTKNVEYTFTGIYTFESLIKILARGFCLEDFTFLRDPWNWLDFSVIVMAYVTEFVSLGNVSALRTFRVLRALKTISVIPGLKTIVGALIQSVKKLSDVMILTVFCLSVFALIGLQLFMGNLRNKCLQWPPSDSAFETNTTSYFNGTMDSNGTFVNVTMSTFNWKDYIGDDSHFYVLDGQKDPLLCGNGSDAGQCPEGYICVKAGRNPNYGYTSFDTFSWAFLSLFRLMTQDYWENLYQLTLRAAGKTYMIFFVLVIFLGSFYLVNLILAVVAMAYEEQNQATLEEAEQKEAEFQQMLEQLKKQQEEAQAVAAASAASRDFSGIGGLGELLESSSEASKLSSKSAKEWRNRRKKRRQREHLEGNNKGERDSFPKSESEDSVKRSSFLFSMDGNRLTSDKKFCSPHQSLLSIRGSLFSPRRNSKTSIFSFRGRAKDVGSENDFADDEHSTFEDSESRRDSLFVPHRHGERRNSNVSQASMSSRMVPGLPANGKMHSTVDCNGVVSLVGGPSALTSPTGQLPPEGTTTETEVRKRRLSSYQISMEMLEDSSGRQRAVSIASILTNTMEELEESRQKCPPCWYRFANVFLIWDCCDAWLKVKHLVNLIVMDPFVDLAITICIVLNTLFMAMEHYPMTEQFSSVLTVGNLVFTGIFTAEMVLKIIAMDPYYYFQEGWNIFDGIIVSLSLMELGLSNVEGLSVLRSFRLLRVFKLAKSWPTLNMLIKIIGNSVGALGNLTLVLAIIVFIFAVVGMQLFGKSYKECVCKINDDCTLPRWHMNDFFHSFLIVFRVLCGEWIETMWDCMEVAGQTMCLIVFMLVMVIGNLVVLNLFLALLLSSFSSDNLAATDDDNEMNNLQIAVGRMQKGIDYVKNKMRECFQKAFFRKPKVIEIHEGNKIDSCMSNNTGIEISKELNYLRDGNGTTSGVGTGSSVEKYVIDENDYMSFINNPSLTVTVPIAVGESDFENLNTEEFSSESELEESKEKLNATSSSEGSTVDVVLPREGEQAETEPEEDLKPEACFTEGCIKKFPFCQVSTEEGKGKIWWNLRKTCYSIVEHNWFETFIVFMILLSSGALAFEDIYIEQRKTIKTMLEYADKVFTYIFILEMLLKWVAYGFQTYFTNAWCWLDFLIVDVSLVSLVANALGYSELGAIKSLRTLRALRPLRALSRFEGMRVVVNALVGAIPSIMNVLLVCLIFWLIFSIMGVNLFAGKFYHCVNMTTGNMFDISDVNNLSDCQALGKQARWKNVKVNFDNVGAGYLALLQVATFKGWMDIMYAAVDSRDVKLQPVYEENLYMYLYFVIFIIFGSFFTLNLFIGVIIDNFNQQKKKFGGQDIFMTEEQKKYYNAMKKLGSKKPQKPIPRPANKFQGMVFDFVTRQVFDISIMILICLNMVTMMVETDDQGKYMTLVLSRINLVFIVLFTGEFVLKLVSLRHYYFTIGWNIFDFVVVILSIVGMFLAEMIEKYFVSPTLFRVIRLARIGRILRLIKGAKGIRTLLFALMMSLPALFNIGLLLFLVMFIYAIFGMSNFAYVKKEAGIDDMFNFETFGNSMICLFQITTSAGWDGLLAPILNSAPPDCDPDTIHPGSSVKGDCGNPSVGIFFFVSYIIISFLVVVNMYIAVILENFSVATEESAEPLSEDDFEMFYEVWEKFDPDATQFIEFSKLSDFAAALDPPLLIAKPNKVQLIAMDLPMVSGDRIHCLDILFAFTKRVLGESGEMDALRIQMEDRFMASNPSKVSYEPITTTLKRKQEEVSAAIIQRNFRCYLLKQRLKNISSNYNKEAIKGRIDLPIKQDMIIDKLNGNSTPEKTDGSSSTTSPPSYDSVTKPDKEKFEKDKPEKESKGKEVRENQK
Chain of hNav1.5 (Q14524 whole entry): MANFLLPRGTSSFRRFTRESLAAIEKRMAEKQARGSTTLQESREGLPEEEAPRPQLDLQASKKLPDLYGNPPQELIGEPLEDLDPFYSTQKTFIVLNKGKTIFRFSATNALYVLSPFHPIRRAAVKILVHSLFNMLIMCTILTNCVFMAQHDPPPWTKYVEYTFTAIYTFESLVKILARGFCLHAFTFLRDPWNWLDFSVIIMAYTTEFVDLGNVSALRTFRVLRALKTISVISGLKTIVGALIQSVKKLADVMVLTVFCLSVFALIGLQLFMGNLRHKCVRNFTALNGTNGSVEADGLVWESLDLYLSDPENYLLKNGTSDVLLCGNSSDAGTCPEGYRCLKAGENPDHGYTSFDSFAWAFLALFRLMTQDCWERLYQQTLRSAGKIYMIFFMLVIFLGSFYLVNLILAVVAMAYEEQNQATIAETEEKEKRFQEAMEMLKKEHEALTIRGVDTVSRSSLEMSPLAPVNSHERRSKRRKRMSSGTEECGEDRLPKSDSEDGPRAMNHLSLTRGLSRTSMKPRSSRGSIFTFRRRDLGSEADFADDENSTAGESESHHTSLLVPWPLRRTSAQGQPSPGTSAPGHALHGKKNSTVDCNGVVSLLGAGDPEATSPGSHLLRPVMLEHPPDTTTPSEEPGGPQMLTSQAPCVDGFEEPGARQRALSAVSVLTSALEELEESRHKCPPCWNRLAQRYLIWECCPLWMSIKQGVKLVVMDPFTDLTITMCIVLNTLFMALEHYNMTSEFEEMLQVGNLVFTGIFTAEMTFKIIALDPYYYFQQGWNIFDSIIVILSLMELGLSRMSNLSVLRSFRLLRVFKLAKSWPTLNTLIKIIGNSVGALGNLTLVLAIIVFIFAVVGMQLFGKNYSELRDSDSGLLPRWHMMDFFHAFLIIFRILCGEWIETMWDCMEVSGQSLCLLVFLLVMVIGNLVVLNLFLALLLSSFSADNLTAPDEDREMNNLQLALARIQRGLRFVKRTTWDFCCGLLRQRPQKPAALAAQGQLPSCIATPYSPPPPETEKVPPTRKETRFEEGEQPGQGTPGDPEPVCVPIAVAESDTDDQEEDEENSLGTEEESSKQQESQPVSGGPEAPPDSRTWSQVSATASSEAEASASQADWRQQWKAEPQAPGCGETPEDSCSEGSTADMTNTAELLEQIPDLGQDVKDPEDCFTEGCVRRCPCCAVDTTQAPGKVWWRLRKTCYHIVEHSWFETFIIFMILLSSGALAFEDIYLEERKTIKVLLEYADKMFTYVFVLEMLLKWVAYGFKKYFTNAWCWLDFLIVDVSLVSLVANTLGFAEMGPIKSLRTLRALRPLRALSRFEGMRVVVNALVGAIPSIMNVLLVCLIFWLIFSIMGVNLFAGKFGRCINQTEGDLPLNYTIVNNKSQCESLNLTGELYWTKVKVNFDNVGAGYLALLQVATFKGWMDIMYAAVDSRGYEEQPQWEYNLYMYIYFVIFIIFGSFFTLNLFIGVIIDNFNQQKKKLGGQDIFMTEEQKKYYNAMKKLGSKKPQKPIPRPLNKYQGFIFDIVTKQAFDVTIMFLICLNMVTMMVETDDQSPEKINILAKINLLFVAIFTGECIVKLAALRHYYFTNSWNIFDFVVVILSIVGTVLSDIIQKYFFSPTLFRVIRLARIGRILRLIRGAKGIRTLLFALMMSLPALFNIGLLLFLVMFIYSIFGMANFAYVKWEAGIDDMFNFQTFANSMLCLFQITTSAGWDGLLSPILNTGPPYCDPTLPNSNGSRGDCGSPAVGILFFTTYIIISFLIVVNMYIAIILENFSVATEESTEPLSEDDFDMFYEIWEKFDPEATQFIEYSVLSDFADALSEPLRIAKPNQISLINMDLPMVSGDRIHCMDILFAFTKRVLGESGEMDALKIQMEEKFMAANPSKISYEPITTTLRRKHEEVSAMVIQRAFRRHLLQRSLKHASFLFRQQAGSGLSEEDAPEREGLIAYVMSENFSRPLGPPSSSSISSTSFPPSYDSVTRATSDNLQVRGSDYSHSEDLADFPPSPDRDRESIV

Compound	IC50 (hNav1.7 [1])	IC50 (hNav1.3; Table 6)	IC50 (hNav1.4 [2]; Table 6)	Nav1.4/Nav1.7 (hNav1.4 [2]; Table 6)	IC50 (hNav1.6)	IC50 (hNav1.5; Table 6)	Nav1.4/Nav1.7 (hNav1.7 [1]; ratio of IonWorks Quattro IC50 values, Nav1.4 over Nav1.7)	Nav1.4/Nav1.7 (hNav1.7 [3])	Nav1.5/Nav1.7 (hNav1.7 [3])	selectivity against hNav1.4 relative to hNav1.7 (hNav1.4 [4])	Nav1.6/Nav1.7 (hNav1.6)	IC50 (hNav1.7 [3]; Table 15)	IC50 (hNav1.7 [1]; IonWorks Quattro, […])	IC50 (hNav1.3; Table 9)	IC50 (hNav1.4 [2]; Table 9)	Nav1.4/Nav1.7 (hNav1.4 [2]; Table 9)	IC50 (hNav1.7 [3])	IC50 (hNav1.5; Table 9)
CC[C@H](C)[C@H](NC(=O)[C@@H](NC(=O)[C@H](CCCCN)NC(=O)[C@H](CCCNC(=N)N)NC(=O)[C@@H]1CSSC[C@@H]2NC(=O)[C@H](C)NC(=O)[C@H](CCCNC(=N)N)NC(=O)[C@H](CCCCN)NC(=O)[C@H](CO)NC(=O)[C@H](CC(=O)O)NC(=O)[C@@H]3CSSC[C@H](NC(=O)[C@H](CCCNC(=N)N)NC(=O)[C@H](CC(C)C)NC(=O)CNC(=O)[C@H](CCC(=O)O)NC(=O)[C@H](CSSC[C@H](NC(=O)[C@@H](N)Cc4ccc(O)cc4)C(=O)N[C@@H](CCC(N)=O)C(=O)N[C@@H](CCCCN)C(=O)N[C@@H](Cc4c[nH]c5ccccc45)C(=O)N[C@@H](CCSC)C(=O)N[C@@H](CCC(=O)O)C(=O)N[C@@H]([C@@H](C)O)C(=O)N3)NC2=O)C(=O)N[C@@H](CCCCN)C(=O)N[C@@H](CC(C)C)C(=O)N[C@@H](Cc2c[nH]c3ccccc23)C(=O)N1)[C@@H](C)CC)C(N)=O [compound 54]	0.56 µM	2.8 µM	2.6 µM	5	> 10000 nM	> 5 µM												
CC[C@H](C)[C@H](NC(=O)[C@@H](NC(=O)[C@H](CCCCN)NC(=O)[C@H](CCCNC(=N)N)NC(=O)[C@@H]1CSSC[C@@H]2NC(=O)[C@H](C)NC(=O)[C@H](CCCNC(=N)N)NC(=O)[C@H](CCCCN)NC(=O)[C@H](CCC(=O)O)NC(=O)[C@H](CC(=O)O)NC(=O)[C@@H]3CSSC[C@H](NC(=O)[C@H](CCCNC(=N)N)NC(=O)[C@H](CC(C)C)NC(=O)CNC(=O)[C@H](CCC(=O)O)NC(=O)[C@H](CSSC[C@H](NC(=O)[C@@H](N)Cc4ccc(O)cc4)C(=O)N[C@@H](CCC(N)=O)C(=O)N[C@@H](CCCCN)C(=O)N[C@@H](Cc4c[nH]c5ccccc45)C(=O)N[C@@H](CCSC)C(=O)N[C@@H](Cc4c[nH]c5ccccc45)C(=O)N[C@@H]([C@@H](C)O)C(=O)N3)NC2=O)C(=O)N[C@@H](CCCCN)C(=O)N[C@@H](CC(C)C)C(=O)N[C@@H](Cc2c[nH]c3ccccc23)C(=O)N1)[C@@H](C)CC)C(N)=O [compound 57]	0.039 µM	0.19 µM	0.38 µM	10	200 nM	> 5 µM												
CC[C@H](C)[C@H](NC(=O)[C@@H](NC(=O)[C@H](CCCCN)NC(=O)[C@H](CCCNC(=N)N)NC(=O)[C@@H]1CSSC[C@@H]2NC(=O)[C@H](CCC(=O)O)NC(=O)[C@H](CCCNC(=N)N)NC(=O)[C@H](CCCCN)NC(=O)[C@H](CO)NC(=O)[C@H](CC(=O)O)NC(=O)[C@@H]3CSSC[C@H](NC(=O)[C@H](CCCNC(=N)N)NC(=O)[C@H](CC(C)C)NC(=O)CNC(=O)[C@H](CCC(=O)O)NC(=O)[C@H](CSSC[C@H](NC(=O)[C@@H](N)Cc4ccc(O)cc4)C(=O)N[C@@H](CCC(N)=O)C(=O)N[C@@H](CCCCN)C(=O)N[C@@H](Cc4c[nH]c5ccccc45)C(=O)N[C@@H](CCSC)C(=O)N[C@@H](Cc4c[nH]c5ccccc45)C(=O)N[C@@H]([C@@H](C)O)C(=O)N3)NC2=O)C(=O)N[C@@H](CCCCN)C(=O)N[C@@H](CC(C)C)C(=O)N[C@@H](Cc2c[nH]c3ccccc23)C(=O)N1)[C@@H](C)CC)C(N)=O [compound 60]	0.02 µM	0.11 µM	0.23 µM	12	146 nM	> 5 µM												
CC[C@H](C)[C@H](NC(=O)[C@@H](NC(=O)[C@H](CCCCN)NC(=O)[C@H](CCCNC(=N)N)NC(=O)[C@@H]1CSSC[C@@H]2NC(=O)[C@H](C)NC(=O)[C@H](CCCNC(=N)N)NC(=O)[C@H](CCCCN)NC(=O)[C@H](CO)NC(=O)[C@H](CC(=O)O)NC(=O)[C@@H]3CSSC[C@H](NC(=O)[C@H](CCC(=O)O)NC(=O)[C@H](CC(C)C)NC(=O)CNC(=O)[C@H](CCC(=O)O)NC(=O)[C@H](CSSC[C@H](NC(=O)[C@@H](N)Cc4ccc(O)cc4)C(=O)N[C@@H](CCC(N)=O)C(=O)N[C@@H](CCCCN)C(=O)N[C@@H](Cc4c[nH]c5ccccc45)C(=O)N[C@@H](CCSC)C(=O)N[C@@H](Cc4c[nH]c5ccccc45)C(=O)N[C@@H]([C@@H](C)O)C(=O)N3)NC2=O)C(=O)N[C@@H](CCCCN)C(=O)N[C@@H](CC(C)C)C(=O)N[C@@H](Cc2c[nH]c3ccccc23)C(=O)N1)[C@@H](C)CC)C(N)=O [compound 63]	0.073 µM	2.5 µM	4.6 µM	63		> 5 µM	14	179	1333	greater than 1000 fold								
CC[C@H](C)[C@H](NC(=O)[C@@H](NC(=O)[C@H](CCCCN)NC(=O)[C@H](CCCNC(=N)N)NC(=O)[C@@H]1CSSC[C@@H]2NC(=O)[C@H](C)NC(=O)[C@H](CCCNC(=N)N)NC(=O)[C@H](CCCCN)NC(=O)[C@H](CO)NC(=O)[C@H](CC(=O)O)NC(=O)[C@@H]3CSSC[C@H](NC(=O)[C@H](CCCNC(=N)N)NC(=O)[C@H](CC(C)C)NC(=O)CNC(=O)[C@H](CCC(=O)O)NC(=O)[C@H](CSSC[C@H](NC(=O)[C@@H](N)Cc4ccc(O)cc4)C(=O)N[C@@H](CCC(N)=O)C(=O)N[C@@H](CCCCN)C(=O)N[C@@H](Cc4c[nH]c5ccccc45)C(=O)N[C@@H](CCSC)C(=O)N[C@@H](Cc4c[nH]c5ccccc45)C(=O)N[C@@H]([C@@H](C)O)C(=O)N3)NC2=O)C(=O)N[C@@H](CCCCN)C(=O)N[C@@H](CCC(=O)O)C(=O)N[C@@H](Cc2c[nH]c3ccccc23)C(=O)N1)[C@@H](C)CC)C(N)=O [compound 65]	4 µM	2 µM	> 5 µM	1	9550 nM	> 5 µM												
CC[C@H](C)[C@H](NC(=O)[C@H](CCC(=O)O)NC(=O)[C@H](CCCCN)NC(=O)[C@H](CCCNC(=N)N)NC(=O)[C@@H]1CSSC[C@@H]2NC(=O)[C@H](C)NC(=O)[C@H](CCCNC(=N)N)NC(=O)[C@H](CCCCN)NC(=O)[C@H](CO)NC(=O)[C@H](CC(=O)O)NC(=O)[C@@H]3CSSC[C@H](NC(=O)[C@H](CCCNC(=N)N)NC(=O)[C@H](CC(C)C)NC(=O)CNC(=O)[C@H](CCC(=O)O)NC(=O)[C@H](CSSC[C@H](NC(=O)[C@@H](N)Cc4ccc(O)cc4)C(=O)N[C@@H](CCC(N)=O)C(=O)N[C@@H](CCCCN)C(=O)N[C@@H](Cc4c[nH]c5ccccc45)C(=O)N[C@@H](CCSC)C(=O)N[C@@H](Cc4c[nH]c5ccccc45)C(=O)N[C@@H]([C@@H](C)O)C(=O)N3)NC2=O)C(=O)N[C@@H](CCCCN)C(=O)N[C@@H](CC(C)C)C(=O)N[C@@H](Cc2c[nH]c3ccccc23)C(=O)N1)C(N)=O [compound 69]	0.028 µM	0.33 µM	0.83 µM	30	248 nM	> 5 µM		300	8800		437	0.568 nM						
CC[C@H](C)[C@H](NC(=O)[C@H](CCCCN)NC(=O)[C@H](CCCNC(=N)N)NC(=O)[C@@H]1CSSC[C@@H]2NC(=O)[C@H](C)NC(=O)[C@H](CCCNC(=N)N)NC(=O)[C@H](CCCCN)NC(=O)[C@H](CO)NC(=O)[C@H](CC(=O)O)NC(=O)[C@@H]3CSSC[C@H](NC(=O)[C@H](CCCNC(=N)N)NC(=O)[C@H](CC(C)C)NC(=O)CNC(=O)[C@H](CCC(=O)O)NC(=O)[C@H](CSSC[C@H](NC(=O)[C@@H](N)Cc4ccc(O)cc4)C(=O)N[C@@H](CCC(N)=O)C(=O)N[C@@H](CCCCN)C(=O)N[C@@H](Cc4c[nH]c5ccccc45)C(=O)N[C@@H](CCSC)C(=O)N[C@@H](Cc4c[nH]c5ccccc45)C(=O)N[C@@H]([C@@H](C)O)C(=O)N3)NC2=O)C(=O)N[C@@H](CCCCN)C(=O)N[C@@H](CC(C)C)C(=O)N[C@@H](Cc2c[nH]c3ccccc23)C(=O)N1)C(=O)N[C@@H](CCC(=O)O)C(N)=O [compound 70]	0.28 µM	5 µM	> 5 µM	18	> 10000 nM	> 5 µM		43	>38		>38	261 nM						
CCCC[C@@H]1NC(=O)[C@H](Cc2c[nH]c3ccccc23)NC(=O)[C@H](CCCCN)NC(=O)[C@H](CCC(N)=O)NC(=O)[C@@H](NC(=O)[C@@H](N)Cc2ccc(O)cc2)CSSC[C@@H]2NC(=O)[C@@H]3CSSC[C@@H](C(=O)N[C@@H](CCCNC(=N)N)C(=O)N[C@@H](CCCCN)C(=O)N[C@H](C(=O)N[C@@H](Cc4cn(CCCOCCOCCOCCOCCOCCOCCOCCOCCOCCOCCN)nn4)C(N)=O)[C@@H](C)CC)NC(=O)[C@H](Cc4c[nH]c5ccccc45)NC(=O)[C@H](CC(C)C)NC(=O)[C@H](CCCCN)NC(=O)[C@H](CSSC[C@H](NC(=O)[C@H]([C@@H](C)O)NC(=O)[C@H](Cc4c[nH]c5ccccc45)NC1=O)C(=O)N[C@@H](CC(=O)O)C(=O)N[C@@H](CO)C(=O)N[C@@H](CCCCN)C(=O)N[C@@H](CCCNC(=N)N)C(=O)N[C@@H](C)C(=O)N3)NC(=O)[C@H](CCCNC(=N)N)NC(=O)[C@H](CC(C)C)NC(=O)CNC(=O)[C@H](CCC(=O)O)NC2=O [compound 270]													0.4 µM	3.9 µM	0.75 µM	2	22 nM	> 7 µM

From US10344060B2 (priority 2013, dated 2019)
